From paper PMC6651094, “A Ligand-Based Virtual Screening Method Using Direct Quantification of Generalization Ability” (Molecules, 2019)

Target: T1, HIV-1 integrase multimerization (Human immunodeficiency virus type 1 group M subtype B, UniProt P12497)
T1 construct: His-tagged and FLAG-tagged integrase (donated by professor Mamuka Kvaratskhelia); gift of Prof; Mamuka Kvaratskhelia (University of Colorado Denver Anschutz Medical Campus)
Test: HTRF assay validating activators of HIV-1 integrase multimerization (in vitro binding assay)
Assay type: biochemical
Details: His-tagged and FLAG-tagged integrase 20 nM each; time-resolved FRET; 8-point 1:3 dilution from 53.7 μM, triplicate; active when EC50 < 5 µM
Method: An assay was carried out as previously described to experimentally validate the compounds [45] identified by LBS as activators of HIV-1 integrase multimerization. Briefly, His-tagged and FLAG-tagged integrase (donated by professor Mamuka Kvaratskhelia at university of Colorado Denver Anschutz Medical Campus) were separately prepared with final concentration of 20 nM. An antibody mixture was prepared with 1.25 μg/mL of anti-6xHis-XL665 antibody (Cisbio) and 58 ng/mL of anti-FLAG-EuCryptate antibody (Cisbio), respectively, in Tris-HCl buffer. His-tagged and FLAG-tagged Integrase were mixed in 25 mM Tris-HCl (pH 7.4) buffer containing 150 mM NaCl, 2 mM MgCl2, 0.1% Nonidet P40, and 1 mg/mL BSA. 35 μL of integrase mixture was added to each well. Next, 270 nL of compounds (each in triplicate using 8-point 1:3 dilution series starting at a maximum nominal test concentration of 53.7 μM) were distributed to appropriate wells. Dimethyl sulfoxide was used as low-control, and BIB-II (donated by professor Mamuka Kvaratskhelia at university of Colorado Denver Anschutz Medical Campus) was used as high-control reference compound. After 3 h of incubation, 15 μL of antibody mixture was added to the plates. After incubation at room temperature for 2.5 h, the time-resolved fluorescence energy transfer signal was measured by the microplate reader (SpectraMax M5, Molecular Devices, LLC., San Jose, CA, USA) by exciting the plates (384 well, Corning) at 340 nm and monitoring well fluorescence at 618 nm and 671 nm with the microplate reader. All the test compounds were bought from ChemDiv (San Diego, CA, USA).

COc1cccc(/C=N/Nc2nc3c(=O)[nH]c(N)nc3n2C2OC(CO)C(O)C2O)c1O (stereo not shown) [Pubchem CID 135427812]
EC50: 710 nM

O=c1c2cc(O)c(O)cc2oc2cc(O)c(OC3OC(CO)C(O)C(O)C3O)c(O)c12 (stereo not shown) [compound 46397461]
EC50: 1260 nM

O=c1c(OC2OC(CO)C(O)C(O)C2O)c(-c2ccc(O)c(O)c2)oc2cc(O)cc(O)c12 (stereo not shown) [compound 5378597]
EC50: 1360 nM

COc1cccc(C=NNc2nc3c(=O)[nH]c(N)nc3n2C2OC(CO)C(O)C2O)c1O (stereo not shown) [compound 135427812]
EC50: 710 nM

O=c1cc(-c2ccc(O)c(O)c2)oc2cc(OC3OC(CO)C(O)C(O)C3O)cc(O)c12 (stereo not shown) [compound 5291488]
EC50: 3620 nM

O=C(NNC1OC(CO)C(O)C(O)C1O)c1ccc(O)cc1 (stereo not shown) [compound 4137880]
EC50: 1260 nM

O=C(NN=Cc1ccccc1F)c1cc(O)c(O)c(O)c1 [compound 3656702]
EC50: 4880 nM
